Measured values as given in PubChem BioAssay AID328 (DTP/NCI, 2004).
“And” between values parts separate entries of the source, which are not always exact repeats. Identical values can stand only once. Toxic doses and inconclusive results are not listed.

System: BDF1 mice, P388 leukemia ip, median survival T/C
Experiment: NCI In Vivo Anticancer Drug Screen. Data for tumor model P388 Leukemia (intraperitoneal) in B6D2F1 (BDF1) mice
Conditions: endpoint: median survival time, higher = longer survival
Procedure, shortened: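 Mice carrying the transplantable tumour receive compound or vehicle. Survival is followed in each arm, and the treated measure is divided by the vehicle measure.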

[1] = dose: 100.0 mg/kg/injection, schedule: Q01DX009 (ip), vehicle: saline with Tween-80
[2] = dose: 200.0 mg/kg/injection, schedule: Q01DX009 (ip), vehicle: saline with Tween-80
[3] = dose: 400.0 mg/kg/injection, schedule: Q04DX003 (ip), vehicle: saline with Tween-80

Question: What does the source list for COc1cc([C@@H]2c3cc4c(cc3[C@@H](OC3OC5CO[C@@H](c6cccs6)OC5C(O)C3O)[C@H]3COC(=O)[C@H]23)OCO4)cc(OC)c1O (stereo partly specified)?
Answer: T/C (dose: 0.25 mg/kg/injection, schedule: Q01DX010 (ip), vehicle: saline): 166 % of control and 175 % of control; T/C (dose: 0.5 mg/kg/injection, schedule: Q01DX010 (ip), vehicle: saline): 179 % of control and 183 % of control; T/C (dose: 1.0 mg/kg/injection, schedule: Q01DX010 (ip), vehicle: saline): 166 % of control and 216 % of control; T/C (dose: 2.0 mg/kg/injection, schedule: Q01DX010 (ip), vehicle: saline): 233 % of control and 250 % of control; T/C (dose: 2.88 mg/kg/injection, schedule: Q04DX003 (ip), vehicle: saline): 300 % of control; T/C (dose: 3.24 mg/kg/injection, schedule: Q04DX003 (ip), vehicle: clinical formulation): 327 % of control; T/C (dose: 4.0 mg/kg/injection, schedule: Q01DX010 (ip), vehicle: saline): 100 % of control; T/C (dose: 4.8 mg/kg/injection, schedule: Q04DX003 (ip), vehicle: saline): 596 % of control; T/C (dose: 5.4 mg/kg/injection, schedule: Q04DX003 (ip), vehicle: clinical formulation): 557 % of control; T/C (dose: 8.0 mg/kg/injection, schedule: Q04DX003 (ip), vehicle: saline): 378 % of control; T/C (dose: 9.0 mg/kg/injection, schedule: Q04DX003 (ip), vehicle: clinical formulation): 557 % of control; T/C (dose: 13.33 mg/kg/injection, schedule: Q04DX003 (ip), vehicle: saline): 240 % of control; T/C (dose: 15.0 mg/kg/injection, schedule: Q04DX003 (ip), vehicle: clinical formulation): 558 % of control

Question: C[C@]12CCC(=O)C=C1CC[C@@H]1[C@@H]2[C@@H](O)C[C@@]2(C)[C@H]1CC[C@]2(O)C(=O)COC(=O)COCC(=O)O was tested. Which T/C [1] did it give?
Answer: 109 % of control

Question: What about the T/C [2] of the same compound?
Answer: 109 % of control

Question: What about the T/C (dose: 400.0 mg/kg/injection, schedule: Q01DX009 (ip), vehicle: saline with Tween-80) of the same compound?
Answer: 109 % of control

Question: With Cc1ccc(S(=O)(=O)OCC2C3CCC2C3)cc1 (stereo unspecified) as the compound, how does the T/C (dose: 50.0 mg/kg/injection, schedule: Q01DX009 (ip), vehicle: saline with Tween-80) read?
Answer: 101 % of control

Question: And the T/C [1]?
Answer: 107 % of control

Question: What about the T/C [2] of the same compound?
Answer: 107 % of control

Question: For Clc1ccc2c(c1)Cc1cc(N=Cc3ccccc3Cl)ccc1-2, which T/C (dose: 42.5 mg/kg/injection, schedule: Q01DX001 (ip), vehicle: other) is on record?
Answer: 86 % of control

Question: What about the T/C (dose: 85.0 mg/kg/injection, schedule: Q01DX001 (ip), vehicle: other) of the same compound?
Answer: 95 % of control

Question: And the T/C (dose: 170.0 mg/kg/injection, schedule: Q01DX001 (ip), vehicle: other)?
Answer: 100 % of control

Question: And the T/C (dose: 170.0 mg/kg/injection, schedule: Q01DX001 (ip), vehicle: saline with Tween-80)?
Answer: 100 % of control

Question: How did the T/C (dose: 0.37 mg/kg/injection, schedule: Q01DX009 (ip), vehicle: saline) turn out when NC(=S)c1nn(C2OC(CO)C(O)C2O)c2ncnc(N)c12 (stereo unspecified) was run?
Answer: 111 % of control

Question: What about the T/C (dose: 0.75 mg/kg/injection, schedule: Q01DX009 (ip), vehicle: saline) of the same compound?
Answer: 116 % of control

Question: For COc1cc(/C=C/C(=O)c2ccc3c(c2)OCO3)ccc1OCc1ccccc1, which T/C (dose: 6.25 mg/kg/injection, schedule: Q01DX009 (ip), vehicle: water) is on record?
Answer: 100 % of control

Question: And the T/C (dose: 12.5 mg/kg/injection, schedule: Q01DX009 (ip), vehicle: water)?
Answer: 100 % of control

Question: And the T/C (dose: 25.0 mg/kg/injection, schedule: Q01DX009 (ip), vehicle: water)?
Answer: 106 % of control and 108 % of control

Question: And the T/C (dose: 50.0 mg/kg/injection, schedule: Q01DX009 (ip), vehicle: water)?
Answer: 95 % of control and 110 % of control

Question: What about the T/C (dose: 50.0 mg/kg/injection, schedule: Q04DX003 (ip), vehicle: water) of the same compound?
Answer: 86 % of control

Question: What about the T/C (dose: 100.0 mg/kg/injection, schedule: Q01DX009 (ip), vehicle: water) of the same compound?
Answer: 95 % of control

Question: And the T/C (dose: 100.0 mg/kg/injection, schedule: Q04DX003 (ip), vehicle: water)?
Answer: 100 % of control

Question: And the T/C (dose: 200.0 mg/kg/injection, schedule: Q01DX009 (ip), vehicle: water)?
Answer: 97 % of control and 110 % of control

Question: And the T/C (dose: 200.0 mg/kg/injection, schedule: Q04DX003 (ip), vehicle: water)?
Answer: 87 % of control

Question: What about the T/C (dose: 400.0 mg/kg/injection, schedule: Q04DX003 (ip), vehicle: water) of the same compound?
Answer: 89 % of control

Question: CC(=O)CC(C)=O.CC(=O)CC(C)=O.Cn1ccnc1.Cn1ccnc1.[Ni] was tested. Which T/C (dose: 12.5 mg/kg/injection, schedule: Q04DX002 (ip), vehicle: saline) did it give?
Answer: 103 % of control

Question: What about the T/C (dose: 25.0 mg/kg/injection, schedule: Q04DX002 (ip), vehicle: saline) of the same compound?
Answer: 107 % of control

Question: What about the T/C (dose: 50.0 mg/kg/injection, schedule: Q04DX002 (ip), vehicle: saline) of the same compound?
Answer: 119 % of control

Question: How did the T/C (dose: 16.0 mg/kg/injection, schedule: Q04DX003 (ip), vehicle: saline) turn out when CC[C@H]1CN2CCc3cc(OC)c(OC)cc3[C@@H]2C[C@@H]1C[C@H]1NCCc2c1[nH]c1ccc(OC)cc21 was run?
Answer: 183 % of control

Question: And the T/C (dose: 18.0 mg/kg/injection, schedule: Q04DX003 (ip), vehicle: acid diluted with saline)?
Answer: 166 % of control

Question: What about the T/C (dose: 30.0 mg/kg/injection, schedule: Q04DX003 (ip), vehicle: acid diluted with saline) of the same compound?
Answer: 150 % of control

Question: What about the T/C (dose: 32.0 mg/kg/injection, schedule: Q04DX003 (ip), vehicle: saline) of the same compound?
Answer: 186 % of control

Question: And the T/C (dose: 64.0 mg/kg/injection, schedule: Q04DX003 (ip), vehicle: saline)?
Answer: 102 % of control

Question: Which results are given for CC1=C(C)C(=O)c2c(OC(=O)c3ccccc3)c(Cl)cc(OC(=O)c3ccccc3)c2C1=O?
Answer: T/C (dose: 25.0 mg/kg/injection, schedule: Q04DX003 (ip), vehicle: saline with Tween-80): 93 % of control; T/C (dose: 50.0 mg/kg/injection, schedule: Q04DX003 (ip), vehicle: saline with Tween-80): 92 % of control; T/C (dose: 100.0 mg/kg/injection, schedule: Q04DX003 (ip), vehicle: saline with Tween-80): 89 % of control and 94 % of control; T/C (dose: 200.0 mg/kg/injection, schedule: Q04DX003 (ip), vehicle: saline with Tween-80): 93 % of control; T/C [3]: 109 % of control

Question: What does the source list for C[C@@H]1C[C@@]2(C)[C@@H](CC[C@@H]3[C@@H]2CC[C@]2(C)OC(=O)CC[C@@H]32)CC1=O?
Answer: T/C (dose: 100.0 mg/kg/injection, schedule: Q04DX003 (ip), vehicle: alcohol): 105 % of control; T/C (dose: 200.0 mg/kg/injection, schedule: Q04DX003 (ip), vehicle: alcohol): 95 % of control; T/C (dose: 264.0 mg/kg/injection, schedule: Q04DX003 (ip), vehicle: saline): 95 % of control and 110 % of control; T/C (dose: 400.0 mg/kg/injection, schedule: Q04DX003 (ip), vehicle: saline): 105 % of control

Question: Cc1cc(N(CCCl)CCCl)ccc1C=Nc1ccccc1C(=O)O was tested. Which T/C [1] did it give?
Answer: 164 % of control

Question: And the T/C [2]?
Answer: 180 % of control

Question: Which results are given for COc1cc(C=Nc2cccc(Br)c2)ccc1N(CCCl)CCCl?
Answer: T/C (dose: 5.5 mg/kg/injection, schedule: Q04DX003 (ip), vehicle: saline with Tween-80): 159 % of control; T/C (dose: 8.3 mg/kg/injection, schedule: Q04DX003 (ip), vehicle: saline with Tween-80): 177 % of control; T/C (dose: 12.5 mg/kg/injection, schedule: Q04DX003 (ip), vehicle: saline with Tween-80): 190 % of control; T/C (dose: 25.0 mg/kg/injection, schedule: Q04DX003 (ip), vehicle: other): 250 % of control; T/C (dose: 100.0 mg/kg/injection, schedule: Q01DX009 (ip), vehicle: saline sonified): 90 % of control

Question: CC[C@@]1(O)C(=O)OCc2c1cc1n(c2=O)Cc2cc3ccccc3nc2-1 was tested. Which T/C (dose: 0.8 mg/kg/injection, schedule: Q01DX009 (ip), vehicle: saline with Tween-80) did it give?
Answer: 170 % of control

Question: What about the T/C (dose: 1.5 mg/kg/injection, schedule: Q01DX009 (ip), vehicle: saline with Tween-80) of the same compound?
Answer: 195 % of control

Question: And the T/C (dose: 2.5 mg/kg/injection, schedule: Q04DX003 (ip), vehicle: saline with Tween-80)?
Answer: 161 % of control

Question: What about the T/C (dose: 3.0 mg/kg/injection, schedule: Q01DX009 (ip), vehicle: saline with Tween-80) of the same compound?
Answer: 183 % of control

Question: What about the T/C (dose: 3.75 mg/kg/injection, schedule: Q04DX003 (ip), vehicle: saline with Tween-80) of the same compound?
Answer: 176 % of control

Question: And the T/C (dose: 4.0 mg/kg/injection, schedule: Q04DX003 (ip), vehicle: saline with Tween-80)?
Answer: 200 % of control

Question: And the T/C (dose: 6.0 mg/kg/injection, schedule: Q04DX003 (ip), vehicle: saline with Tween-80)?
Answer: 233 % of control

Question: And the T/C (dose: 9.0 mg/kg/injection, schedule: Q04DX003 (ip), vehicle: saline with Tween-80)?
Answer: 250 % of control

Question: What does the source list for c1ccc(N/N=C(/C[n+]2cc3ccccc3c3ccccc32)c2ccccc2)cc1?
Answer: T/C (dose: 25.0 mg/kg/injection, schedule: Q01DX009 (ip), vehicle: Klucel (hydroxypropylcellulose) (HPC)): 114 % of control; T/C (dose: 33.0 mg/kg/injection, schedule: Q01DX009 (ip), vehicle: Klucel (hydroxypropylcellulose) (HPC)): 113 % of control; T/C (dose: 35.0 mg/kg/injection, schedule: Q01DX009 (ip), vehicle: Klucel (hydroxypropylcellulose) (HPC)): 95 % of control; T/C (dose: 50.0 mg/kg/injection, schedule: Q01DX009 (ip), vehicle: Klucel (hydroxypropylcellulose) (HPC)): 100 % of control; T/C (dose: 75.0 mg/kg/injection, schedule: Q01DX009 (ip), vehicle: Klucel (hydroxypropylcellulose) (HPC)): 112 % of control and 122 % of control; T/C (dose: 100.0 mg/kg/injection, schedule: Q01DX009 (ip), vehicle: Klucel (hydroxypropylcellulose) (HPC)): 114 % of control

Question: COc1cc(/C=N\NC(=O)c2cccc(Cl)c2)ccc1N(CCCl)CCCl was tested. Which T/C (dose: 264.0 mg/kg/injection, schedule: Q04DX003 (ip), vehicle: saline with Tween-80) did it give?
Answer: 173 % of control

Question: And the T/C [3]?
Answer: 234 % of control

Question: And the T/C (dose: 600.0 mg/kg/injection, schedule: Q04DX003 (ip), vehicle: saline with Tween-80)?
Answer: 260 % of control
